Consider one molecule from PMC9145193 (Molecules, 2022).

Series [1] can be described thus: DPPH free radical scavenging assay. As to conditions: 50 μM, mean ± SEM. Here is the method: DPPH assay was used to evaluate the free radical scavenging ability of the representative compound 10a, while Trolox was used as a control.
Compound 10a was tested for free radical-scavenging activity using 1,1-diphenyl-2-picryl-hydrazyl (DPPH) (D9132, Merck, Kenilworth, NJ, USA). To make a 0.1 mM concentration of DPPH stock solution, DPPH was dissolved in methanol. […] Trolox was used as a reference. The absorbance was measured at 545 nm after 30 min of reaction at 25 °C.

Another series has as its target T1, AChE (Electrophorus electricus, UniProt O42275).
T1 construct: purchased Merck C3389
Description: Kinetic study of AChE inhibition (Lineweaver-Burk). The class given is biochemical. As to conditions: 10a at 0, 0.8 and 1.6 nM. Here is the method: The mechanistic inhibition study of compound 10a on the AChE was carried out through kinetic parameters such as maximal velocity (Vmax), inhibitory concentration (Ki) and Michalis–Menten dissociation constant (Km).
Kinetic study of AChE inhibition was carried out using Ellman’s method, which is the same as the AChE assay, to determine the kinetic mechanism of chemical inhibition. The kinetic inhibition of compound 10a was analyzed at concentrations of 0.8 and 1.6nM. Lineweaver–Burk reciprocal plots were created by graphing 1/velocity vs. 1/[substrate] at various concentrations of substrate acetylthiocholine. The software GraphPad Prism 8.0 was used to analyze the data.

Series [2] deals with T2, AChE enzyme from electrophorus electricus (eeAChE) (Electrophorus electricus, UniProt O42275).
T2 construct: purchased Merck C3389
The series is described as follows: biochemical. As to conditions: mean ± SEM from three independent experiments. The procedure:
Donepezil was used as a positive control.
AChE activity was measured by the […] using AChE enzyme from electrophorus electricus (eeAChE) (C3389, Merck, Kenilworth, NJ, USA). AChE solution (2 U/mL) was prepared with 0.1 M phosphate buffer (pH 8.0) firstly. Varied concentrations of test compounds (20 μL), 1 mM 5′-dithiobis (2-nitrobenzoic acid) (DTNB) solution (100 μL), and AChE solution (40 μL) were added in order to each well of a 96-well plate. After incubation for 15 min at 37 °C, the reaction was initiated by adding 20 μL of acetylthiocholine iodide (1 mM) to the mixed solution. The absorbance of each plate was instantly measured at 405 nm using a microplate reader. The inhibition of each compound was estimated using the formula (1−Ai/Ac) × 100, where Ai and Ac represent the absorbance of AChE in the presence and absence of inhibitors, respectively. Each experiment was replicated three times. Plotting curves of log concentration via percentage of inhibition, the IC50 values of all tested compounds were graphically analyzed (Graph Pad Prism 8.0).

A further series concerns the target T3, Aβ (Homo sapiens, UniProt P05067).
T3 construct: Aggregation of β-amyloid peptide (Aβ) is one of the main histopathological hallmarks of AD; purchased Beyotime P9001
The series is described as follows: Self-induced Aβ aggregation inhibition by thioflavin T assay. The class given is biochemical. The following applies: read-out: Aβ Aggregation Inhibition (%). The procedure:
Aggregation of β-amyloid peptide (Aβ) is one of the main histopathological hallmarks of AD [34].
A total of 1mg Aβ (P9001, Beyotime, Shanghai, China) was dissolved in 1 mL of hexafluoroisopropanol and aliquoted into 50 μL per tube. Then, 20 μL of DMSO was added into one tube of Aβ solution. The test compound was prepared as a 10 mM of stock solution with DMSO and diluted to 50 μM with PBS (including the control). Then, 20 μL of the test compound and 20 μL of the Aβ solution were added to a 96-well black plate, which was gently tapped to mix the solution, covered tightly and sealed with black tape to prevent evaporation of the solvent, and left in the dark at room temperature for 24 h. Then. 160 μL of THT solution at a concentration of 5 μM was added and the fluorescence absorption was measured at an excitation wavelength of 445 nm and an emission wavelength of 490 nm. The software GraphPad Prism 8.0 was used to analyze the data.

The next series concerns SH-SY5Y cells. The series is described as follows: Cytotoxicity assay on SH-SY5Y cells (MTT). The following applies: 10, 25 and 50 μM, 24 h. The class given is cell-based. Here is the method:
To evaluate the cytotoxicity of these new compounds, cell viability was tested on SH-SY5Y cells.
SH-SY5Y cells were grown in a 25 cm^2 culture flask in fresh MEM/F12 medium, supplemented with 10% fetal bovine serum, 100 U/mL penicillin, and 100 µg/mL streptomycin, and incubated at 37 °C with 5% CO2. Cells were seeded at a density of 1 × 10^4 cells per well in a 96-well plate. After incubation for 24 h, medium was removed. […] After 24 h treatment, 10 μL of 3-(4,5-dimethyl-2-thiazolyl)-2,5-diphenyl-2-H-tetrazolium bromide was added into each well. After 4 h of incubation at 37 °C, 100 μL of DMSO was added to dissolve the formazan crystals, and the mixture’s absorbance was measured at 490 nm under a microplate reader (FC/K3, Thermo, Waltham, MA, USA). The survival rate was estimated using the formula Ae/Ab × 100%, where Ae and Ab represent the absorbance of SH-SY5Y cells in the presence and absence of the tested drugs, respectively. Each experiment was replicated three times.

“And” between values parts separate entries of the source, which are not always exact repeats. Identical values can stand only once.

T1 sequence (O42275 24-633): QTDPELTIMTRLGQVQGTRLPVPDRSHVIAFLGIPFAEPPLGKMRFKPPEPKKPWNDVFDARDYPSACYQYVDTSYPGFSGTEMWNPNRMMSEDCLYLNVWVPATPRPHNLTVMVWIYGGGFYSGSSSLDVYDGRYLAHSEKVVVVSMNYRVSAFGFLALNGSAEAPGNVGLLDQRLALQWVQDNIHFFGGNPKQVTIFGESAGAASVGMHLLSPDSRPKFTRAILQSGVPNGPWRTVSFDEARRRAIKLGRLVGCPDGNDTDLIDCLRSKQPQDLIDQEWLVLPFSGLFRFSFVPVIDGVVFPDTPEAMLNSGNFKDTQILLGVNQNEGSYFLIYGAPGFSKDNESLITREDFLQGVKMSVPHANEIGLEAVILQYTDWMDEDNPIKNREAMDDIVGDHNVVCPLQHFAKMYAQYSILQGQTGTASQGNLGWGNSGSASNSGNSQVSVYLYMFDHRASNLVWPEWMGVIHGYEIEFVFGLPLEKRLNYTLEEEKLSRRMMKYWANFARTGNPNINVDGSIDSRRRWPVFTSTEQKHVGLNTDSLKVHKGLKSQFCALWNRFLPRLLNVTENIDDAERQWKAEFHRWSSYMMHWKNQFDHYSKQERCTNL
T2 sequence (O42275 24-633): as above
T3 sequence (P05067 672-713): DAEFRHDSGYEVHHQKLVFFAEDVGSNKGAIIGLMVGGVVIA

For orientation: IC50 means the concentration that gives 50% inhibition. For orientation: inhibition means the drop in the measured response relative to a control, in per cent. Regarding `COc1cc2c(cc1OC)C(=O)/C(=C/c1cc[n+](Cc3ccccc3)cc1C(C)=O)OC2.[Br-]` [10a, (Z)-3-Acetyl-1-benzyl-4-((6,7-dimethoxy-4-oxoisochroman-3-ylidene)methyl)pyridin-1-ium bromide], the “Reduced DPPH (%)” value in series [1] is 31.89% and 31.89 ± 3.23%. The “Type of AChE inhibition (Lineweaver-Burk plot)” value on AChE was “mixed-type inhibitor”. Half-maximal inhibition in series [2] (IC50) was put at 1.61 ± 0.02 nM. For the same molecule, the inhibition at 25 µM on Aβ worked out at 57 ± 2.68%. For the same molecule, the “Cell viability on SH-SY5Y cells” value in the series on SH-SY5Y cells is given as “did not significantly alter cell viability”.
